Measurements published in patent US11357748B2, “Methods for treating mendelian disorders of the epigenetic machinery” (THE JOHNS HOPKINS UNIVERSITY, priority 2014, dated 2022).
“Also recorded” adds a separate entry of the source.

Experiments:
[1] = test system: genome-wide H3K4me3 in spleen cells; assay: ChIP-seq of H3K4me3 in spleen cells of treated mice; assay type: in vivo, mouse; conditions: 10 mg/kg/day; vs Kmt2d+/+ littermates on vehicle; FIG. 25E, 27B
Description: Spleens were dissected from eight mice, four from each kmt2d genotype (+/βGeo or +/+) where half of each genotype was treated with AR-42 and half with vehicle only. Spleens were minced and passed through a 40 µm cell strainer to obtain single cell suspensions. 10 million cells were used for each ChIP-seq experiment following the native chromatin immunoprecipitation protocol, as previously described (Gilfillan et al. (2012) BMC Genomics 13:645), using a ChIP-grade antibody against H3K4me3 (9727, Cell Signaling Technology, Beverly, Mass.).
Sequencing was performed using a MiSeq system (Illumina, San Diego, Calif.). 4.8-9.6 million paired-end 26 bp reads were obtained per sample (Table 2; nReads=number of reads, alignRate=fraction aligned to genome; FRIP=fraction of reads in peaks). Reads were aligned to the m. musculus genome, version mm 10, using Bowtie 2 (Langmead and Salzberg (2012) Nat. Methods. 9: 357-9). Each sample was examined with regard to alignment rate as well as FRIP (fraction of reads in peaks), a measure of the ChIP efficiency (Table 2). […] For analysis, reads were merged into one meta-sample and peak calling was performed using MACS version 1.4.2 (Zhang et al. (2008) Genome Biol. 9: R137). […] This created a peak by sample matrix of read counts. […] Fold change and overall abundance was calculated as per edgeR. […]

[2] = test system: Kmt2d+/βGeo mice; assay: Morris water maze (hippocampal memory) in the Kmt2d+/βGeo mouse model of Kabuki syndrome; assay type: in vivo; conditions: 10 mg/kg/day
From the text: Kmt2d^+/βGeo mice, also named Mll2Gt^(RRt024) Byg, were acquired from Bay Genomics (University of California). All experimental mice were on a mixed C57BL/6J and 129/SvEv background. Expected Mendelian ratios were observed when heterozygous animals were bred to wild-type. In heterozygous crosses, however, there was uniform embryonic lethality of homozygotes by ED 12, the earliest developmental stage assayed. For treatment with AR-42, mice were orally gavaged daily with drug (Selleck Chemicals, Houston, Tex.) solubilized in vehicle (0.5% methylcellulose, 0.1% Tween-80, water) or with vehicle alone. Drug delivery information was kindly provided by Drs. Chen and Kulp from Ohio State University (Huang et al. (2011) Mol. Pharmacol. 79:197-20619). Drug was administered for 14 days and mice were sacrificed on day 15. Morris water maze testing was initiated at day 7 and a dose of 10 mg/kg/day was used for these studies. For quantification of DCX positive cells, doses of 0, 5, 10 and 25 mg/kg/day were used. Genotyping was performed using primers B-GeoF-([…]; SEQ ID NO: 1) and B-GeoR-([…]; SEQ ID NO: 2) that are specific for the targeted allele and TcrdF-([…]; SEQ ID NO: 3) and TcrdR-([…]; SEQ ID NO: 4) that control for sufficient DNA concentration. Real-time PCR using the same primers allows discrimination between the heterozygous and homozygous state for the targeted allele. Maxillary protrusion was evaluated by ten investigators blinded to genotype and they were asked to rate maxillary protrusion on radiographs as either large (2) or small (1). […] All experiments were performed using mouse protocols approved by the Animal Care and Use Committee of Johns Hopkins University School of Medicine. The mouse protocols used for this study are in accordance with the guidelines used by the NIH for mouse care and handling.
Mice were placed in a 1.1 meter diameter tank filled with room temperature water dyed with non-toxic white paint. For analysis purposes, the tank was divided into four quadrants, with one quadrant containing a small platform submerged 1.5 cm beneath the water. On each day of training, mice were placed in the tank in a random quadrant facing away from the center and were allowed to swim until they found the platform and were left there for 30 seconds. […] Each mouse was given 4 trials per day (for 5 days) with no inter-trial interval and subsequently returned to its home cage. Latency to reach the platform was measured during each trial. The day after the final day of training, the platform was removed for a probe trial where mice were placed in the tank for 90 s. Average number of crossings of the platform's previous location was recorded. Visible/flagged platform training was also performed for 3 days either before the hidden platform or after the probe trial, where a visible flag was placed on the submerged platform, and the time for each mouse to reach the platform was measured for each 60 second trial, four of which were run in the same way as the hidden platform training. For all training and probe testing, data was recorded both manually and electronically with ANY-maze software (San Diego Instruments, San Diego, Calif.) when applicable. All data were collected and analyzed by an individual blinded to genotype and treatment group. Differences in the number of platform crossings during the probe trial were compared between groups with a Student's t-test with significance value set at P<0.05.

[3] = test system: H3K4 trimethylation and histone acetylation; conditions: Huang et al. (2011); cited from earlier work

## CC(C)[C@H](C(=O)Nc1ccc(C(=O)NO)cc1)c1ccccc1 [AR-42, (S)—N-hydroxy-4-(3-methyl-2-phenylbutanamido)benzamide]
[1]
  genome-wide H3K4me3 in spleen cells of Kmt2d+/βGeo mice: genome-wide increase in H3K4me3; also recorded: overcorrection of genome-wide H3K4me3; also recorded: improved
[2]
  functional studies outcome by dose: most improvement in functional studies
[2]; FIG. 12B
  escape latency during training, Kmt2d+/βGeo vs Kmt2d+/+ both on drug: No significant difference is observed
[2]; FIG. 12D
  escape latency during training, Kmt2d+/βGeo animals with vs without drug: No significant difference is observed
[2]; FIG. 25F
  frequency of platform crossing during probe trial, Kmt2d+/βGeo mice: normalized
[2]; P<0.01, FIG. 12C
  escape latency during training, Kmt2d+/+ animals with vs without drug: significant difference
[2]; greater response in Kmt2d+/βGeo, FIG. 25F
  platform crossing during probe trial, both Kmt2d+/+ and Kmt2d+/βGeo mice: improved performance
[3]
  relative effect on H3K4me3 among HDACi: strongest effect on H3K4me3
